≈ marks a conversion by molar mass, not a printed value.
Tests used:
[1] = Heat-up/cool-down crystallisation screen of sorbate salt (Example 10, Experiments 5, 8); assay type: physicochemical; conditions: for Observations (t = 1 @ T = 20° C.): Tabernanthalog sorbate salt (Form A) crystallised from binary solvents, solvent A 3.0 vol plus solvent B, one pair per sample; for XRPD (centrifuged, wet): wet pellet
Procedure: The relevant solvent (0.225 ml, 3.0 vol) was added to the appropriate vial and the suspensions were stirred and warmed to temperature. If dissolution was not observed, further solvent was added until the solute dissolved, or aliquots of a secondary co-solvent were added to complete dissolution. Once dissolved, the solutions were left to cool down and stand undisturbed under sub-ambient conditions for several days. After crystallisation was judged complete, the products were isolated by centrifugation and the pellets were dried at 40° C. under reduced pressure. Products from the crystallisation (wet and dry) were initially analysed by XRPD (9-minute method), further analyses of certain products were performed by ^1H NMR, DSC and TGA, if the diffraction pattern indicated differences.

[2] = Solubility determinations in SIF buffers FaSSIF, FeSSIF, FaSSGF (Example 8, Experiment 5); conditions: for Tabernanthalog RRT = 1.00 (trended HPLC data, chemical purity): tabernanthalog sorbate salt, 37° C.
Procedure: The temperature was maintained at 37° C. for 24 h. […] The suspensions were sampled at the relevant time points and centrifuged. The centrifuged pellets, obtained at the time points were analysed by XRPD as a wet pellet and dried, for evidence of form change.
The temperature was maintained at 37° C. for 24 h.
The suspension was sampled at the relevant time points and centrifuged. […] The centrifuged pellets, obtained at the time points were analyzed by XRPD as a wet pellet and dried, for evidence of form change.

[3] = Suspension equilibration of the monofumarate salt at 20° C. and 40° C. (Experiment References 6, 7, 8); assay type: physicochemical; conditions: suspension equilibration at 40° C.
Procedure: Separate portions of the tabernanthalog monofumarate salt (Sample Reference 1, Pattern #1, ca 50 mg, 1.0 wt.) were charged to separate vessels. The appropriate solvents (e.g. 250 μl, 5.0 vol), were charged to the vessels and the mixtures were stirred for several days at their relevant temperatures e.g. 20 and 40° C. After this time the products were cooled, isolated by centrifugation, analyzed as wet pellet (suffix-1) by XRPD and dried under reduced pressure at 40° C. (suffix-2) and re-analyzed by XRPD and companion analyses for evidence of alternative crystalline forms.
The tabernanthalog monofumarate salt (Sample Reference 1, Pattern #1) was subjected to this technique at ambient temperature (20° C., Table 35) and at elevated temperature (40° C., Table 36), in a diverse range of solvents. The primary aim is to identify a stable, anhydrous monotropic form that is suitable for future development.
The tabernanthalog monofumarate salt (Sample Reference 1, Pattern #1, 1.0 g, 1 wt) was suspended in water (5 ml, 5 vol) at 20° C. for 10 days (the suspension was sub-sampled to monitor the conversion to Pattern #6a by XRPD). The suspension was filtered through a sintered funnel and the filter cake was dried under nitrogen flow for ca. 24 h. Sample 8-A4 (Experiment Reference 8-Sample Reference A4) was collected as a brown solid (560.6 mg, 56% yield uncorr.). Yield was not corrected for impurities, solvents, etc.

[4] = Experiment 5, heat-up/cool-down crystallisation from binary solvents
[5] = 37 °C, pH 1.6, fassgf or other biorelevant, thermodynamic from solid
[6] = 37 °C, pH 5, fessif, thermodynamic from solid
[7] = 37 °C, pH 6.5, fassif, thermodynamic from solid

## C/C=C/C=C/C(=O)O.COc1ccc2c3c([nH]c2c1)CCN(C)CC3 [Experiment 5-Sample F]
[1]; Experiment 5
  Observations (t = 1 @ T = 20° C.): Partial
[1]; [4]
  XRPD (oven dried @ 40° C., 20 h): Form A
  XRPD (centrifuged, wet): Form A

## CC=CC=CC(=O)O.COc1ccc2c3c([nH]c2c1)CCN(C)CC3 [Experiment 8-Sample A]
[1]; Experiment 8, repeat of HUCD crystallisations aiming at Pattern #1 (water) and Pattern #6 (heptane/ethyl formate)
  XRPD (centrifuged, wet): Pattern #1

## C/C=C/C=C/C(=O)O.COc1ccc2c3c([nH]c2c1)CCN(C)CC3 [Experiment 5-Sample O]
[1]; Experiment 5
  Observations (t = 1 @ T = 20° C.): Liquid
[1]; [4]
  XRPD (oven dried @ 40° C., 20 h): Form A
  XRPD (centrifuged, wet): Form A

## C/C=C/C=C/C(=O)O.COc1ccc2c3c([nH]c2c1)CCN(C)CC3 [Experiment 5-Sample D]
[1]; Experiment 5
  Observations (t = 1 @ T = 20° C.): Liquid
[1]; [4]
  XRPD (oven dried @ 40° C., 20 h): Form A
  XRPD (centrifuged, wet): Form A

## CC=CC=CC(=O)O.COc1ccc2c3c([nH]c2c1)CCN(C)CC3 [Experiment 5-Sample K]
[1]; Experiment 5
  Observations (t = 1 @ T = 20° C.): Partial
[1]; [4]
  XRPD (oven dried @ 40° C., 20 h): Form A
  XRPD (centrifuged, wet): Form A

## COc1ccc2c3c([nH]c2c1)CCN(C)CC3 [Tabernanthalog• Sorbate]
[2]; [5]
  solubility at 1 h: 21.9 mg/mL (≈ 95 mM)
  solubility at 3 h: 29.8 mg/mL (≈ 130 mM)
  solubility at 6 h: 30.3 mg/mL (≈ 131 mM)
  solubility at 24 h: 29.9 mg/mL (≈ 130 mM)
[2]; [6]
  solubility at 1 h: 27.2 mg/mL (≈ 118 mM)
  solubility at 3 h: > 30 mg/mL
  solubility at 6 h: > 30 mg/mL
[2]; [7]
  solubility at 1 h: > 30 mg/mL
  solubility at 3 h: > 30 mg/mL
  solubility at 6 h: > 30 mg/mL
[2]; FaSSGF (pH 1.6), t = 1 h @37° C., suspended solid, dried pellet
  XRPD (dried): Sorbic acid
[2]; FaSSGF (pH 1.6), t = 1 h @37° C., suspended solid, wet pellet
  XRPD (wet): Sorbic acid

## C/C=C/C=C/C(=O)O.COc1ccc2c3c([nH]c2c1)CCN(C)CC3 [Experiment 5-Sample P]
[1]; Experiment 5
  Observations (t = 1 @ T = 20° C.): Partial
[1]; [4]
  XRPD (oven dried @ 40° C., 20 h): Form A
  XRPD (centrifuged, wet): Form A

## C/C=C/C=C/C(=O)O.COc1ccc2c3c([nH]c2c1)CCN(C)CC3 [Experiment 5-Sample J]
[1]; Experiment 5
  Observations (t = 1 @ T = 20° C.): Partial
[1]; [4]
  XRPD (oven dried @ 40° C., 20 h): Form A
  XRPD (centrifuged, wet): Form A

## C/C=C/C=C/C(=O)O.COc1ccc2c3c([nH]c2c1)CCN(C)CC3 [Experiment 5-Sample G]
[1]; Experiment 5
  Observations (t = 1 @ T = 20° C.): Partial
[1]; [4]
  XRPD (oven dried @ 40° C., 20 h): Form A
  XRPD (centrifuged, wet): Pattern #6

## C/C=C/C=C/C(=O)O.COc1ccc2c3c([nH]c2c1)CCN(C)CC3 [Sample 5-L1]
[2]; t = 1 h in FaSSGF
  Tabernanthalog RRT = 1.00 (trended HPLC data, chemical purity): 99.52

## C/C=C/C=C/C(=O)O.COc1ccc2c3c([nH]c2c1)CCN(C)CC3 [Experiment 5-Sample E]
[1]; Experiment 5
  Observations (t = 1 @ T = 20° C.): Partial
[1]; [4]
  XRPD (oven dried @ 40° C., 20 h): Form A
  XRPD (centrifuged, wet): Form A

## C/C=C/C=C/C(=O)O.COc1ccc2c3c([nH]c2c1)CCN(C)CC3 [Sample 5-L4]
[2]; t = 3 h in FaSSGF
  Tabernanthalog RRT = 1.00 (trended HPLC data, chemical purity): 99.36

## C/C=C/C=C/C(=O)O.COc1ccc2c3c([nH]c2c1)CCN(C)CC3 [Experiment 5-Sample N]
[1]; Experiment 5
  Observations (t = 1 @ T = 20° C.): Partial
[1]; [4]
  XRPD (oven dried @ 40° C., 20 h): Form A
  XRPD (centrifuged, wet): Form A

## CC=CC=CC(=O)O.COc1ccc2c3c([nH]c2c1)CCN(C)CC3 [Experiment 5-Sample B]
[1]; Experiment 5
  Observations (t = 1 @ T = 20° C.): Solid
[1]; [4]
  XRPD (oven dried @ 40° C., 20 h): Form A
  XRPD (centrifuged, wet): Form A

## CC=CC=CC(=O)O.COc1ccc2c3c([nH]c2c1)CCN(C)CC3 [Experiment 5-Sample A]
[1]; Experiment 5
  Observations (t = 1 @ T = 20° C.): Partial
[1]; [4]
  XRPD (oven dried @ 40° C., 20 h): Form A
  XRPD (centrifuged, wet): Form A

## C/C=C/C=C/C(=O)O.COc1ccc2c3c([nH]c2c1)CCN(C)CC3 [Experiment 5-Sample I]
[1]; Experiment 5
  Observations (t = 1 @ T = 20° C.): Liquid
[1]; [4]
  XRPD (oven dried @ 40° C., 20 h): Form A
  XRPD (centrifuged, wet): Form A

## C/C=C/C=C/C(=O)O.COc1ccc2c3c([nH]c2c1)CCN(C)CC3 [Experiment 5-Sample L]
[1]; Experiment 5
  Observations (t = 1 @ T = 20° C.): Partial
[1]; [4]
  XRPD (oven dried @ 40° C., 20 h): Form A
  XRPD (centrifuged, wet): Form A

## C/C=C/C=C/C(=O)O.COc1ccc2c3c([nH]c2c1)CCN(C)CC3 [Experiment 5-Sample C]
[1]; Experiment 5
  Observations (t = 1 @ T = 20° C.): Solid
[1]; [4]
  XRPD (oven dried @ 40° C., 20 h): Form A
  XRPD (centrifuged, wet): Form A

## C/C=C/C=C/C(=O)O.COc1ccc2c3c([nH]c2c1)CCN(C)CC3 [Experiment 5-Sample M]
[1]; Experiment 5
  Observations (t = 1 @ T = 20° C.): Liquid
[1]; [4]
  XRPD (oven dried @ 40° C., 20 h): Form A
  XRPD (centrifuged, wet): Form A

## C/C=C/C=C/C(=O)O.COc1ccc2c3c([nH]c2c1)CCN(C)CC3 [Sample 5-L10]
[2]; t = 24 h in FaSSGF
  Tabernanthalog RRT = 1.00 (trended HPLC data, chemical purity): 99.33

## COc1ccc2c3c([nH]c2c1)CCN(C)CC3.O=C(O)/C=C/C(=O)O [Tabernanthalog•fumarate (CAT8931)]
[3]; 7-A, Acetone
  Observations (t = 0 @ 40° C.): Suspension
  Observations (t = 1 d @ 40° C.): Suspension
  Observations t = 7 d @ 40° C.: Suspension
[3]; 7-B, Acetonitrile
  Observations (t = 0 @ 40° C.): Suspension
  Observations (t = 1 d @ 40° C.): Suspension
  Observations t = 7 d @ 40° C.: Suspension
[3]; 7-C, tert-Butylmethyl ether
  Observations (t = 0 @ 40° C.): Suspension
  Observations t = 7 d @ 40° C.: Suspension
[3]; 7-D, Chlorobenzene
  Observations (t = 0 @ 40° C.): Suspension
  Observations (t = 1 d @ 40° C.): Suspension
  Observations t = 7 d @ 40° C.: Suspension
[3]; 7-E, Dichloromethane
  Observations (t = 0 @ 40° C.): Suspension
  Observations (t = 1 d @ 40° C.): Suspension
  Observations t = 7 d @ 40° C.: Suspension
[3]; 7-F, Ethanol
  Observations (t = 0 @ 40° C.): Suspension
  Observations (t = 1 d @ 40° C.): Suspension
  Observations t = 7 d @ 40° C.: Suspension
[3]; 7-G, Ethyl acetate
  Observations (t = 0 @ 40° C.): Suspension
  Observations (t = 1 d @ 40° C.): Suspension
  Observations t = 7 d @ 40° C.: Suspension
[3]; 7-H, Ethyl formate
  Observations (t = 0 @ 40° C.): Suspension
  Observations (t = 1 d @ 40° C.): Suspension
  Observations t = 7 d @ 40° C.: Suspension
[3]; 7-I, Heptane
  Observations (t = 0 @ 40° C.): Suspension
  Observations (t = 1 d @ 40° C.): Suspension
  Observations t = 7 d @ 40° C.: Suspension
[3]; 7-J, Isopropyl acetate
  Observations (t = 0 @ 40° C.): Suspension
  Observations (t = 1 d @ 40° C.): Suspension
  Observations t = 7 d @ 40° C.: Suspension
[3]; 7-K, Methanol
  Observations (t = 0 @ 40° C.): Suspension
  Observations t = 7 d @ 40° C.: Suspension
[3]; 7-L, Methyl acetate
  Observations (t = 0 @ 40° C.): Suspension
  Observations (t = 1 d @ 40° C.): Suspension
  Observations t = 7 d @ 40° C.: Suspension
[3]; 7-M, Methylethyl ketone
  Observations (t = 0 @ 40° C.): Suspension
  Observations (t = 1 d @ 40° C.): Suspension
  Observations t = 7 d @ 40° C.: Suspension
[3]; 7-N, 2-Methyl THF
  Observations (t = 0 @ 40° C.): Suspension
  Observations (t = 1 d @ 40° C.): Suspension
  Observations t = 7 d @ 40° C.: Suspension
[3]; 7-O, Nitromethane
  Observations (t = 0 @ 40° C.): Suspension
  Observations (t = 1 d @ 40° C.): Suspension
  Observations t = 7 d @ 40° C.: Suspension
[3]; 7-P, 2-Propanol
  Observations (t = 0 @ 40° C.): Suspension
  Observations (t = 1 d @ 40° C.): Suspension
  Observations t = 7 d @ 40° C.: Suspension
[3]; 7-Q, Tetrahydrofuran
  Observations (t = 0 @ 40° C.): Suspension
  Observations (t = 1 d @ 40° C.): Sticky Solid
  Observations t = 7 d @ 40° C.: Suspension
[3]; 7-R, Toluene
  Observations (t = 0 @ 40° C.): Suspension
  Observations (t = 1 d @ 40° C.): Suspension
  Observations t = 7 d @ 40° C.: Suspension
[3]; 7-S, Water
  Observations (t = 0 @ 40° C.): Suspension
  Observations t = 7 d @ 40° C.: Suspension

## C/C=C/C=C/C(=O)O.COc1ccc2c3c([nH]c2c1)CCN(C)CC3 [Sample 5-L7]
[2]; t = 6 h in FaSSGF
  Tabernanthalog RRT = 1.00 (trended HPLC data, chemical purity): 99.30
